Reference: US7579376B2, “Geranyl compounds” (Ohgen Research Laboratories, Ltd., priority 2002, dated 2009)

Columns and labels:
[1] = system: HuH-7 cells (dendriform cell strain of human hepatoma); assay: Measurement of antitumor effect: HuH-7 carcinoma pieces hypodermically implanted in nude mice, carcinomas weighed after administration; type: in vivo; conditions: Huh-7, ip, 504 h, carcinoma weight relative to control group (100%), 250 μg/mouse intraperitoneally in corn oil once per day for 3 weeks, starting a week after implantation
Procedure: Measurement of Antitumor Effect
(§1) Carcinoma of HuH-7 cells (dendriform cell strain of human hepatoma) hypodermically implanted or subimplanted in the backs of 5-weeks old female nude mice (BALB/c, Ninox) was aseptically taken out and crushed into 5×5 mm sized pieces in a phosphate buffer solution (PBS), a piece of which then being hypodermically implanted in the backs of the nude mice.
(§2) Each test substance was dissolved in corn oil, and the solution was intraperitoneally administered to the nude mice consecutively once per day at a rate of 250 μg/mouse for 3 weeks, starting from a week after the implantation. After termination of the administration, the carcinomas were taken out and weighed to calculate the antitumor effect and the mice' weight loss by the following equations. For the test six mice per group were used, and the group administered with the solvent (corn oil) alone was made the control group:
(§3) Evaluations of antitumor effect and weight loss were conducted according to the following standard, where the control group values were held to be 100%.
• −: >100%, +/−: 100˜75%, +: 75˜50%, ++: 50˜25%, +++: 25˜0% Weight Loss • −: >110%, +/−: 110˜100%, +: 100˜95%, ++: 95˜90%, +++: <90% Death Rate (Death Rate During the Test Period) • −: none • +/−: death occurred with high concentration administration (500 μg/mouse) • +: 1-3 mice dead • ++: 3-5 mice dead • +++: all 6 mice dead Synthetic Evaluation • −: weak antitumor effect and very strong toxicity against host mice • +/−: weak antitumor effect recognizable and toxicity against host mice also observable • +: a fixed level of antitumor effect observable but toxicity against host mice also strong • ++: strong antitumor effect observed and toxicity against host mice week • +++: strong antitumor effect observed and no toxicity against host mice

[2] = Toxicity against host mice (weight loss, death rate) in the HuH-7 antitumor test; type: in vivo; conditions: 250 μg/mouse intraperitoneally once per day for 3 weeks, six mice per group; for Toxicity Death rate: death rate during the test period; for Toxicity Weight loss: mouse weight relative to control group (100%)
Procedure: as §1, §2, §3

Row | Compound | response vs control in vivo at 0.25 mg [1] | Toxicity Death rate [2] | Toxicity Weight loss [2]
1 | CC(C)=CCC/C(C)=C/C(=O)NC1C(O)OC(CO)C(O)C1O (stereo not drawn) | 0 to 25% | − | + (100˜95%)
2 | CC(O)(CCO)CC(=O)NC1C(O)OC(CO)C(O)C1O (stereo not drawn) | 25 to 50% | − | +/− (110˜100%)
3 | CC(C)=CCC/C(C)=C/CNC(=O)/C=C/C(=O)NC/C=C(\C)CCC=C(C)C [N,N′-digeranylfumaric diamide, N,N′-digeranylfumaric Diamide] | 25 to 50% | − | +/− (110˜100%)
4 | CC(C)=CCC/C(C)=C/CNC(=O)CC(O)C(=O)NC/C=C(\C)CCC=C(C)C (stereo not drawn) [N,N′-digeranylmalic diamide, N,N′-digeranylmalic Diamide] | 50 to 75% | − | + (100˜95%)
5 | CC(=O)N[C@@H](Cc1ccc(O)cc1)C(=O)NC/C=C(\C)CCC=C(C)C [N-acetyltyrosine geranylamide, N-acetyltyrosine Geranylamide] | 50 to 75% | − | +/− (110˜100%)
6 | CC(C)=CCC/C(C)=C/C(=O)NC1C(O)OC(C)C(O)C1O (stereo not drawn) [N-fucosegeranamide] | 25 to 50% | − | +/− (110˜100%)
7 | CC(C)=CCC/C(C)=C/C(=O)N[C@@H](Cc1ccc(O)cc1)C(=O)O [N-geranoyltyrosine] | 25 to 50% | − | +/− (110˜100%)
8 | CC(C)=CCC/C(C)=C/CNC(=O)C1OC(O)C(O)C(O)C1O (stereo not drawn) [N-geranyl galacturonamide, N-geranylgalacturonamide] | 0 to 25% | +/− | +/− (110˜100%)
9 | CC(=O)C(=O)Nc1ccc(C(=O)NC/C=C(\C)CCC=C(C)C)cc1 [N-geranyl-4-pyruvoaminobenzamide, N-geranyl-p-pyruvoaminobenzamide] | 25 to 50% | − | − (>110%)
10 | CC(C)=CCC/C(C)=C/CNC(=O)[C@@H](N)Cc1ccc(O)cc1 [Tyrosine geranylamide, Tyrosine Geranylamide] | 50 to 75% | − | +/− (110˜100%)
